The text below walks through data of US20090023666A1, “Modulators of Hypoxia Inducible Factor-1 and Related Uses” (priority 2006, published 2009).

Each structure is given as a SMILES string.

The target in series [1] is Na-K-ATPase. In words: Na-K-ATPase enzyme assay (inorganic phosphate liberated from ATP), pig brain. The settings on record: Pig brain; read-out: ATPase Inh, IC50 Pig brain. The series is classed as biochemical. Here is the method:
(§1) Compounds were tested for their activity on Na-K-ATPase enzyme in an in vitro enzyme assay. The ATPase activity was assayed as the amount of inorganic phosphate liberated from ATP by Dog Kidney or Porcine cerebral cortex Na-K-ATPase.

For the next series, the system named is Caki-1 (CAKI). In words: cells. In kind it is cell-based. The settings on record: Homo sapiens, CAKI-1, read-out: APA (Caki-1) IC50. The procedure: (§2) FIG. 8 is a graph depicting the mRNA levels of α-1 and α-3 isoforms quantitated by real time RT-PCR (TaqMan) using fluorescent labeled TaqMan probes. Anti-proliferation (IC50 values) activity of BNC4 on indicated cell lines was determined by MTS assay. Total alpha levels (al+a3) were plotted against (1/IC50) X100 values.

The next series deals with A549. In words: cells. In kind it is cell-based. The settings on record: Homo sapiens, A549, read-out: APA (A549) IC50. Here is the method:
as §2

In the next series the test system is Panc-1 (PANC). In words: Anti-proliferative activity (APA), Panc-1. In kind it is cell-based. The settings on record: Homo sapiens, PANC-1, read-out: APA (Panc-1) IC50. The procedure: as §2
The test system of series [2] is 5-aminoimidazole-4-carbox-amide riboside (AICAR). In words: AICAR-RA reporter assay. The settings on record: indicative of the inhibition of glucose metabolism, read-out: AICAR-RA ED50. In kind it is cell-based.
A further series concerns Panc-1 tumors. In words: In vivo activity against Panc-1 human pancreatic xenograft. Set-up: species or system nude mice. The settings on record: Gemcitabine 40 mg/kg q3d × 4. Here is the method: Panc-1 tumors were injected subcutaneously (sc) into the flanks of male nude mice. After the tumors reached 60 mg in size, osmotic pumps (model 2002, Alzet Inc., flow rate 0.5 μl/hr) containing 15 mg/ml of BP244 were implanted sc on the opposite sides of the mice. The control animals received pumps containing vehicle (10% captisol, Cyclex Inc.). The mice treated with standard chemotherapy agent received intra-peritoneal injections of Gemcitabine at 40 mg/kg every 3 days for 4 treatments (q3d×4). The experiment was terminated when the control group tumor size reached an average of about 1 gram. Upon termination, the mice were weighed, sacrificed and their tumors excised. The tumors were weighed and the mean tumor weight per group was calculated.
A titration experiment was first performed on BP244 to determine its minimum effective dose against Panc-1 human pancreatic xenograft in nude mice. BP244 (sc, osmotic pumps) was first tested at 15, 10 and 5 mg/ml using Alzet pumps as in previous experiments. Gemcitabine (40 mg/kg; q3d×4, i.p.) was also included in the experiment as a comparison. […]
On the technique in general: In xenograft studies the graft and the host belong to different species.

The next series deals with A549 sentinel line. In words: Hypoxic stress response induced by cytotoxic agents in A549 sentinel line. The series is classed as cell-based. The settings on record: chemotherapeutic agent alone. The source says:
FIGS. 7A-7E are graphs depicting the stress response of A549 Sentinel Line induced by treatment with Gemcitabine (FIG. 7A) or Gemcitabine in the presence of indicated compound (FIG. 7B-7D). Untreated (control) sample is shown in shadow. […] Similar results can be achieved for other chemotherapeutic agents which induce hypoxic stress, such as paclitaxel, carboplatin, and mitoxantrone.
Similar results were obtained with carboplatin (not shown).

The target of series [3] is T1, Na-K-ATPase (Canis lupus familiaris, UniProt P50997).
T1 construct: liberated from ATP by Dog Kidney or Porcine cerebral cortex Na-K-ATPase; from tissue; host or cells: dog kidney
In words: Na-K-ATPase enzyme assay (inorganic phosphate liberated from ATP), dog kidney. The series is classed as biochemical. Here is the method:
as §1

The conditions of series [4]: in vivo; cited from earlier work.

A word on the IC50: it is the concentration at which inhibition is half-maximal. With `C[C@@H]1OC(O[C@@H]2C=C3CCC4C(CC[C@]5(C)[C@@H](c6ccc(=O)oc6)CC[C@]45O)[C@@]3(C)CC2)[C@H](O)[C@H](O)[C@H]1N` (some centres unmarked), the IC50 at Na-K-ATPase [1] was found to be 540 nM; in the series on Caki-1 (CAKI) it was 56 nM; with A549, 7 nM; in the series on Panc-1 (PANC) it was 21 nM.
Turning to `CC12CCC(OC(=O)C3CCNCC3)C=C1CCC1C2CCC2(C)C(c3ccc(=O)oc3)CCC12O` (centres unmarked), the concentration for half-maximal inhibition (IC50) is 136 nM at Na-K-ATPase [1], 120 nM with Caki-1 (CAKI) and 20 nM in the series on A549. For the same compound, in series [2], the EC50 came to 101 nM.
As for `CCON=C1C=C2CCC3C(CCC4(C)C(c5ccc(=O)oc5)CCC34O)C2(C)CC1` (centres unmarked), the IC50 on Na-K-ATPase [1] was found to be 93 nM; in the series on Caki-1 (CAKI), 19 nM; in the series on A549, 14 nM.
As for `COC1O[C@@H]2C(=O)[C@H](C)OC(O[C@@H]3C=C4CCC5C(CC[C@]6(C)[C@@H](c7ccc(=O)oc7)CC[C@]56O)[C@@]4(C)CC3)[C@@H]2O1` (some centres unmarked), the IC50 at Na-K-ATPase [1] came out at 169 nM; with Caki-1 (CAKI), 26 nM.
On to `Nc1ccn([C@@H]2O[C@H](CO)[C@@H](O)C2(F)F)c(=O)n1` [Gemcitabine, reference compound], for which, in the series with Panc-1 tumors, the “% TGI (d24)” value was found to be 65%, the “% Wt Change (d24)” value was determined as 2.60% and the “Av. Tumor Weight” value was 414.3 mg. Further, the “hypoxic response visualized by A549 sentinel line” value in the series on A549 sentinel line was “further induce hypoxic response”.
As to `CC12CCC(OC(=O)Nc3ccc(F)cc3)C=C1CCC1C2CCC2(C)C(c3ccc(=O)oc3)CCC12O` (centres unmarked), the IC50 is 277 nM on Na-K-ATPase [1], 142 nM in the series with Caki-1 (CAKI) and 23 nM in the series on A549. For the same compound, in [2], the EC50 is 100 nM.
Take `CC(=O)N1CCC(C(=O)O[C@@H]2C=C3CCC4C(CC[C@]5(C)[C@@H](c6ccc(=O)oc6)CC[C@]45O)[C@@]3(C)CC2)CC1` (some centres unmarked): the half-maximal inhibitory concentration (IC50) at Na-K-ATPase [1] stood at 396 nM; in the series with Caki-1 (CAKI), 342 nM; with A549, 15 nM; on Na-K-ATPase [3] it was 270 nM. The EC50 in series [2] came out at 133 nM.
With `C=CCON=C1C=C2CCC3C(CCC4(C)C(c5ccc(=O)oc5)CCC34O)C2(C)CC1` (centres unmarked), the IC50 was 116 nM on Na-K-ATPase [1], 40 nM in the series with Caki-1 (CAKI) and 9 nM in the series with A549.
For `CCNC(=O)O[C@@H]1C=C2CCC3C(CC[C@]4(C)[C@@H](c5ccc(=O)oc5)CC[C@]34O)[C@@]2(C)CC1` (some centres unmarked), the IC50 at Na-K-ATPase [1] was found to be 210 nM; in the series with Caki-1 (CAKI), 82 nM; in the series on A549, 35 nM; at Na-K-ATPase [3], 220 nM. The EC50 in series [2] stood at 75 nM.
With `C[C@]12CCC(NCCN3CCOCC3)CC1CCC1C2CC[C@]2(C)[C@@H](c3ccc(=O)oc3)CC[C@]12O` (some centres unmarked), the 50% inhibitory concentration (IC50) at Na-K-ATPase [1] was determined as 356 nM; with Caki-1 (CAKI) it was 276 nM; with A549, 101 nM.
Take `CN(C)CCON=C1C=C2CCC3C(CCC4(C)C(c5ccc(=O)oc5)CCC34O)C2(C)CC1` (centres unmarked): the half-inhibitory concentration (IC50) at Na-K-ATPase [1] worked out at 85 nM; in the series on Caki-1 (CAKI) it was 24 nM; in the series on A549 it was 2 nM.
Consider `CN(C)CCN=C1CC[C@@]2(C)C(CCC3C2CC[C@]2(C)[C@@H](c4ccc(=O)oc4)CC[C@]32O)C1` (some centres unmarked), for which the results for the 50% inhibitory concentration (IC50) on Na-K-ATPase [1], with Caki-1 (CAKI) and in the series on A549 were 171 nM, 109 nM and 25 nM, respectively.
Turning to `C[C@@H]1O[C@@H](O[C@H]2C[C@@H](O)[C@]3(CO)[C@H]4[C@H](O)C[C@]5(C)[C@@H](C6=CC(=O)OC6)CC[C@]5(O)[C@@H]4CC[C@]3(O)C2)[C@H](O)[C@H](O)[C@H]1O` [BNC1, ouabain], in series [4], the max. plasma concentration result is reported as “about 0.03 μg/mL”.
On to `CCCCNC(=O)OC1C=C2CCC3C(CCC4(C)C(c5ccc(=O)oc5)CCC34O)C2(C)CC1` (centres unmarked), for which the half-inhibitory concentration (IC50) on Na-K-ATPase [1] was 206 nM; in the series with Caki-1 (CAKI), 46 nM; with A549, 24 nM. For the same compound, the EC50 in series [2] is 68 nM.
In the case of `CC12CCC(=NOCCN3CCCCC3)C=C1CCC1C2CCC2(C)C(c3ccc(=O)oc3)CCC12O` (centres unmarked), the half-inhibitory concentration (IC50) at Na-K-ATPase [1] was 164 nM; in the series with Caki-1 (CAKI) it was 27 nM; in the series on A549, 7 nM; in the series on Panc-1 (PANC), 16 nM.
Regarding `CC12CCC(OC(=O)c3ccc(C#N)cc3)C=C1CCC1C2CCC2(C)C(c3ccc(=O)oc3)CCC12O` (centres unmarked), the IC50 at Na-K-ATPase [1] worked out at 453 nM; in the series with Caki-1 (CAKI), 84 nM; in the series with A549, 55 nM. Also, the EC50 in series [2] stood at 130 nM.
The matching figures for `CN(C)/N=C1/C=C2CCC3C(CC[C@]4(C)[C@@H](c5ccc(=O)oc5)CC[C@]34O)[C@@]2(C)CC1` (some centres unmarked): 196 nM, 118 nM, 23 nM and 102 nM.
In the case of `CCCNC(=O)OC1C=C2CCC3C(CCC4(C)C(c5ccc(=O)oc5)CCC34O)C2(C)CC1` (centres unmarked), the concentration for half-maximal inhibition (IC50) on Na-K-ATPase [1] is 198 nM; with Caki-1 (CAKI), 67 nM; in the series with A549, 19 nM. The EC50 in series [2] was found to be 102 nM.
As for `C[C@]12CCC(N)C=C1CCC1C2CC[C@]2(C)[C@@H](c3ccc(=O)oc3)CC[C@]12O` (some centres unmarked), the IC50 was determined as 93 nM at Na-K-ATPase [1], 72 nM in the series with Caki-1 (CAKI) and 5 nM in the series on A549.
Turning to `COC1O[C@@H]2[C@@H](N)[C@H](C)OC(C[C@@H]3C=C4CCC5C(CC[C@]6(C)[C@@H](c7ccc(=O)oc7)CC[C@]56O)[C@@]4(C)CC3)[C@@H]2O1` (some centres unmarked), the 50% inhibitory concentration (IC50) turned out to be 206 nM at Na-K-ATPase [1], 12 nM with Caki-1 (CAKI), 3 nM in the series on A549 and 11 nM in the series on Panc-1 (PANC).
As to `C[C@@H]1CC(O[C@@H]2C=C3CCC4C(CC[C@]5(C)[C@@H](c6ccc(=O)oc6)CC[C@]45O)[C@@]3(C)CC2)[C@H](O)[C@H](O)[C@@H]1O` (some centres unmarked), the IC50 at Na-K-ATPase [1] worked out at 129 nM; with Caki-1 (CAKI), 24 nM; in the series with A549, 9 nM.
`CC(C)(C)NC(=O)OC1C=C2CCC3C(CCC4(C)C(c5ccc(=O)oc5)CCC34O)C2(C)CC1` (centres unmarked): the IC50 stood at 207 nM at Na-K-ATPase [1], 276 nM with Caki-1 (CAKI) and 45 nM in the series with A549. Further, the EC50 in series [2] amounted to 104 nM.
Consider `C[C@]12CC[C@H](OC(=O)C3CCNC3)C=C1CCC1C2CC[C@]2(C)[C@@H](c3ccc(=O)oc3)CC[C@]12O` (some centres unmarked), for which the half-maximal inhibitory concentration (IC50) on Na-K-ATPase [1] stood at 480 nM; in the series on Caki-1 (CAKI), 112 nM; in the series on A549, 48 nM; at Na-K-ATPase [3], 299 nM. Besides, the EC50 in [2] came out at 210 nM.
